What was measured:
[1] = system: neonatal rat cardiomyocytes; assay: Fatty acid oxidation (14CO2 release from 14C-palmitate) in rat primary cardiomyocytes treated with DGAT1 inhibitor; details: 1 μM, 2 hr
Description: Neonatal Rat Ventricular Myocytes (NRVM's) were extracted from 1-3 day old Sprague Dawley rat pups. […] Both the right and left ventricles were digested in CBHHF media containing 0.2% Trypsin, 100 U Penn-Strep and DNAse II. […] Fibroblasts were separated from the myocytes by preplating for 30 min. […] Myocytes were then collected and cultured in MEM/5% FBS/Pen-Strep/BrDU/L-Gln overnight at 37 C, 5.0% CO2 at a confluency of 75-80% (1.8×10^6 cells per well of a 6 well plate and 0.9×10^6 cells per well of a 12 well plate). The following day myocyte containing plates were assayed for fatty acid oxidation capacity.
Rat primary cardiomyocytes were plated in either 6 well plate or 12 well plate. […] The sample was counted on a beta scintillation counter after resting for at least 2 hours. […]
Primary rat cardiomyocytes were incubated with 1 μM {4-[4-(4-Amino-7,7-dimethyl-7H-pyrimido[4,5-b][1,4]oxazin-6-yl)-phenyl]-cyclohexyl}-acetic acid for 2 hr. The cells were then incubated with ^14C-labeled palmitate and liberated ^14CO2 was determined as described. […]
Primary rat cardiomyocytes were incubated with 1 μM {4-[4-(4-Amino-7,7-dimethyl-7H-pyrimido[4,5-b][1,4]oxazin-6-yl)-phenyl]-cyclohexyl}-acetic acid for 2 hr. The cells were then incubated with ^14C-labeled palmitate, with 0.5 mM glucose, and liberated ^14CO2 was determined as described. […]

Row | melting point | SMILES | fatty acid oxidation in cardiomyocytes in presence of glucose ([1]; 0.5 mM glucose, FIG. 3, p<0.05) | decrease in the ability of cells to oxidize [14C]palmitate ([1]; absence of glucose, FIG. 2, p<0.05)
1 |  | CC1(C)Oc2ncnc(N)c2N=C1c1ccc(C2CCC(CC(=O)O)CC2)cc1 (stereo not drawn) | robust decrease in fatty acid oxidation | ~15%
2 | 223 to 225 °C | Cc1ccc(NC(=O)c2ccc3c(c2)C(=O)N(c2c(C)cccc2C)C3=O)cc1C |  | 

From patent US20100016387A1, “METHOD OF TREATMENT” (priority 2006, published 2010)
